In assay [1] the test system is Mycobacterium tuberculosis. Description: Minimum inhibitory concentration against H37Ra stain of Mycobacterium tuberculosis using MABA method. The format is functional.
Assay [2] has as its system Mycobacterium tuberculosis. Briefly: Minimum inhibitory concentration against H37Rv stain of Mycobacterium tuberculosis using Agar Microdilution. The format is functional.

Converted amounts (≈) assume the structure as drawn.

The results in this text go back to ChEMBL document CHEMBL1142851, “An efficient synthesis of aryloxyphenyl cyclopropyl methanones: a new class of anti-mycobacterial agents” (2005).

As for `c1cncc(COc2ccc(CC3CC3)cc2)c1`, the MIC was above 25 µg/mL in assay [1] and 25 µg/mL (≈ 104 µM) in assay [2].

As to `O=C(c1ccc(OCc2ccccc2Cl)cc1)C1CC1`, the MIC in assay [1] was above 25 µg/mL; in assay [2] it was 12.5 µg/mL (≈ 43.6 µM).

As for `Fc1ccc(COc2ccc(CC3CC3)cc2)cc1`, the MIC in assay [2] turned out to be 12.5 µg/mL (≈ 48.8 µM).

Regarding `COc1ccc(COc2ccc(CC3CC3)cc2)cc1OC`, the MIC amounted to 12.5 µg/mL (≈ 41.9 µM) in assay [1] and 25 µg/mL (≈ 83.8 µM) in assay [2].

With `OC(c1ccc(OCc2ccncc2)cc1)C1CC1` (configuration not stated), the MIC in assay [1] and in assay [2] was above 25 µg/mL in each case.

Regarding `O=C(c1ccc(OCC2CCCC2)cc1)C1CC1`, the MIC in assay [1] is above 25 µg/mL; in assay [2], 25 µg/mL (≈ 102 µM).

On to `OC(c1ccc(OCc2ccccc2)cc1)C1CC1` (configuration not stated), for which the MIC was above 50 µg/mL in assay [1] and 25 µg/mL (≈ 98.3 µM) in assay [2].

`O=C(c1ccc(OCc2ccc(F)cc2)cc1)C1CC1`: the MIC is above 25 µg/mL in assay [1] and 12.5 µg/mL (≈ 46.2 µM) in assay [2].

Regarding `COc1ccc(COc2ccc(C(O)C3CC3)cc2)cc1` (configuration not stated), the results for the MIC in assay [1] and in assay [2] were above 50 µg/mL and 3.12 µg/mL (≈ 11 µM), respectively.

Consider `c1ccc(COc2ccc(CC3CC3)cc2)cc1`, for which the minimum inhibitory concentration (MIC) in assay [1] is above 50 µg/mL; in assay [2] it was 12.5 µg/mL (≈ 52.4 µM).

`OC(c1ccc(OCc2ccccc2Cl)cc1)C1CC1` (configuration not stated) showed an MIC in assay [1] above 25 µg/mL.

`OC(c1ccc(OCc2ccco2)cc1)C1CC1` (configuration not stated): the MIC in assay [1] and in assay [2] was above 25 µg/mL in each case.

For the compound `O=C(c1ccc(OCc2ccccc2)cc1)C1CC1`, the values for the MIC in assay [1] and in assay [2] were 25 µg/mL (≈ 99.1 µM) and 6.25 µg/mL (≈ 24.8 µM), respectively.

Regarding `COc1ccc(COc2ccc(C(=O)C3CC3)cc2)cc1`, the MIC in assay [1] is above 50 µg/mL; in assay [2], 12.5 µg/mL (≈ 44.3 µM).

On to `COc1ccc(COc2ccc(C(=O)C3CC3)cc2)cc1OC`, for which the MIC came to 25 µg/mL (≈ 80 µM) in assay [1] and 12.5 µg/mL (≈ 40 µM) in assay [2].

As for `O=C(c1ccc(OCC2CCCCC2)cc1)C1CC1`, the MIC in assay [1] and in assay [2] was above 25 µg/mL throughout.

As to `Clc1ccccc1COc1ccc(CC2CC2)cc1`, the MIC is above 25 µg/mL in assay [1] and above 50 µg/mL in assay [2].

`O=C(c1ccc(OCc2cccnc2)cc1)C1CC1`: the MIC in assay [1] is above 25 µg/mL; in assay [2], 25 µg/mL (≈ 98.7 µM).

With `O=C(c1ccc(OCc2ccc(Cl)cc2)cc1)C1CC1`, the MIC was above 25 µg/mL in assay [1] and 25 µg/mL (≈ 87.2 µM) in assay [2].

As for `COc1ccc(COc2ccc(C(O)C3CC3)cc2)cc1OC` (configuration not stated), the MIC is 3.12 µg/mL (≈ 9.92 µM) in assay [1] and above 50 µg/mL in assay [2].

For the compound `O=C(c1ccc(OCCc2ccco2)cc1)C1CC1`, the MIC in assay [1] and in assay [2] was 25 µg/mL (≈ 97.5 µM) throughout.

Regarding `O=C(c1ccc(OCc2ccc(Cl)c(Cl)c2)cc1)C1CC1`, the values for the MIC in assay [1] and in assay [2] were above 25 µg/mL and 25 µg/mL (≈ 77.8 µM), respectively.

For `OC(c1ccc(OCC2CCCC2)cc1)C1CC1` (configuration not stated), the figures for the MIC in assay [1] and in assay [2] were 25 µg/mL (≈ 101 µM) and 3.12 µg/mL (≈ 12.7 µM), respectively.

As for `OC(c1ccc(OCc2cccnc2)cc1)C1CC1` (configuration not stated), the MIC in assay [1] and in assay [2] was above 25 µg/mL in each case.

As for `COc1ccc(COc2ccc(CC3CC3)cc2)cc1`, the MIC was above 25 µg/mL in assay [1] and 25 µg/mL (≈ 93.2 µM) in assay [2].

Take `OC(c1ccc(OCc2ccc(F)cc2)cc1)C1CC1` (configuration not stated): the MIC stood at 25 µg/mL (≈ 91.8 µM) in assay [1] and 6.25 µg/mL (≈ 23 µM) in assay [2].

As to `O=C(c1ccc(OCc2ccncc2)cc1)C1CC1`, the results for the MIC in assay [1] and in assay [2] were above 25 µg/mL and 12.5 µg/mL (≈ 49.3 µM), respectively.
